From patent US8026231B2, “Aminothiolester compounds, pharmaceutical and cosmetic compositions containing same and uses thereof” (CNRS, priority 2000, dated 2011)

Legend:
BAF3-bcl2 G21 cells = assay: Apoptosis induction (DNA fragmentation) in BAF3-bcl2 clone G21, 24 h; assay type: cell-based, mouse
Procedure: The BAF3-bcl2 cells correspond to BAF3 cells (mouse lymphocyte cells) tranfected with the bcl2 gene. Among these cells, four lines known as H16, G18, B14 and G21 overexpress the bcl2 gene.
Whereas the BAF3-b0 cells undergo apoptosis (more than 80% of the cells) in the absence of interleukin 3 (IL3) in 16 hours [according to Collins, M. K. L., Marvel, J., Malde, P. & Lopez-Rivas, A., J. Exp. Med. 176, 1043-1051, (1992)], the BAF3-bcl2 cells show no sign of apoptosis in the absence of IL3. They are thus apoptosis-resistant.
The procedure which was used is as follows: • The BAF3-b0 or BAF3-bcl2 cells, cultured in the presence of IL3, were labelled by a method adapted from that disclosed in Wright, S. et al., J. of Cell. Biochem. 48, 344-355, (1992).
10^5 cells/ml were incubated with 4.62 KBq.ml^−1 [^3H]-thymidine for 40 hours at 37° C. After two washes with culture medium, 2.5×10^6 cells were cultured in the presence of the test compound.
After incubating for 24 hours, these cells were recovered by centrifugation at 400×g for 5 minutes and washed 3 times with PBS buffer. The cells recovered in the pellet were lysed in 2 ml of 0.1% Triton X-100, 20 mM EDTA, 5 mM Tris pH 8 and centrifuged at 30 000×g at 4° C. for 30 minutes.
The supernatants were recovered and the pellets dissolved in 0.3 ml of 0.5N NaOH.
Aliquots of the culture medium (1 ml), of the supernatant (0.3 ml) and of the dissolved pellet (0.1 ml) were assayed in a scintillation counter.
The percentage of DNA fragments is calculated in the following way:
The percentage of fragmentation of the DNA is a direct measure of the apoptosis which the cells have undergone.

BAF3 bcl2 cells = assay: Growth of BAF3 bcl2 cells (viable cell count, Trypan blue); assay type: cell-based, murine; conditions: 50% inhibition of cell growth
Procedure: (§1) The cells used correspond to two cell lines: metastatic cells of human prostate cancer (DU145) and murine lymphoid cells transfected with the human bcl2 gene (BAF3 bcl2).
The procedure used for the tests on BAF3 bcl2 cells is as follows: • 10^5 cells are incubated in the various wells of a microplate in 1 ml of culture medium. After incubation for 4 hours, the test compounds are added to the wells containing the BAF3 bcl2 cells.
For the BAF3 bcl2 cells, the growth is measured by counting the viable cells in the presence of 0.1% Trypan blue. The control consists of thioampal, disclosed in patent application WO 98/44919.
(§2) The IC50 concentration is the concentration corresponding to a 50% inhibition of cell growth.

R7 cells = assay: Growth of R7 cells which overexpress the MDR gene; assay type: cell-based; conditions: increasing concentrations, 72 h, FIGS. 7 and 8
Procedure: 10^5 cells were incubated in the various wells of a microplate in 1 ml of culture medium. These are R7 cells, on the one hand, and K562 cells, on the other hand.
After incubating for 4 hours, the test compound (compound of Example 1 according to the invention, on the one hand, and daunorubicin, on the other hand) was added to the wells containing the cells.
After 72 hours, the cells were collected at different times.
The growth of the cells was measured by counting the viable cells in the presence of 0.1% Trypan blue.
FIGS. 7 and 8 respectively represent the percentage inhibition (I %) by daunorubicin and the compound of Example 1 on the growth of the R7 and K562 cells, obtained at increasing concentrations C. The results obtained with the K562 cells are symbolized by ♦ and those obtained with the R7 cells are symbolized by ▴.

[1] = test system: normal human prostate cells; assay: Combination of two compounds of the invention on normal human prostate cells; assay type: cell-based; conditions: 2 μM
Procedure: (§3) 10^5 normal human prostate cells or 10^5 cancerous human prostate cells (DU145) are incubated in various wells of a microplate in 1 ml of culture medium.
(§4) The compounds are added 4 hours after placing the cells in the wells.
(§5) After 72 hours, the cells are removed at different times. The DU145 cells or the normal cells are washed twice with PBS and recovered directly with 0.1M sodium chloride.
(§6) The effect on the growth of the DU145 cells or the normal cells is measured by protein assay according to the Lowry method (Lowry, O. H., Rosenbrough, N. J., Farr, A. L. and Randall, J. Biol. Chem. 193, 265-275, (1951)) and DNA assay by the Hoechst method (West, D. C., Sattar, A. and Kumar, S., Anal. Biochem. 147, 289-295, (1985)).

L1210 cells = assay: Growth of L1210 cells (viable cell count, Trypan blue); assay type: cell-based, mouse; conditions: 50% inhibition of growth
Procedure: The cells used correspond to various cell lines: human lung normal embryonic fibroblasts (MRC5), mouse melanoma cells (B16), mouse lymphocytic leukaemia cells (L1210) and L1210T cells obtained by infecting L1210 cells with a retroviral vector bearing human ALDH1 cDNA.
The procedure used for the tests on the L1210 cells is as follows: • 10^5 cells are incubated in the various wells of a microplate in 1 ml of culture medium. After incubating for 4 hours, the test compounds are added to the wells containing the L1210 cells.
For the L1210 cells, the growth is measured by counting the viable cells in the presence of 0.1% Trypan blue.
The IC50 concentration is the concentration corresponding to a 50% inhibition of growth of the cells.

DU145 cells [2] = assay: Combination of two compounds of the invention on the growth of DU145 cells; assay type: cell-based, human; conditions: 2 μM
Procedure: as §3, §4, §5, §6

DU145 cells [3] = assay: Growth of DU145 cells (protein and DNA assay, 72 h); assay type: cell-based, human; conditions: 50% inhibition of cell growth
Procedure: as §1
The procedure used for the tests on DU145 is as follows: • 10^5 cells are incubated in the various wells of a microplate in 1 ml of culture medium.
as §4
After 72 hours, the cells are removed at different times. The DU145 cells are washed twice with PBS and recovered directly with 0.1M sodium chloride.
as §6, with “DU145” for “DU145 cells or the normal”
as §2

CSC(=O)C#CC(C)(C)N(C)C [Example 1, S-methyl 4-dimethyl-amino-4-methyl-2-pentynethioate]
DNA fragmentation (%) (BAF3-bcl2 G21 cells; G21, 1 μM): 0% | DNA fragmentation (%) (BAF3-bcl2 G21 cells; G21, 2 μM): 5.8% | DNA fragmentation (%) (BAF3-bcl2 G21 cells; G21, 4 μM): 29.3% | DNA fragmentation (%) (BAF3-bcl2 G21 cells; G21, 8 μM): 71.8% | IC50 (BAF3 bcl2 cells): 0.25 µM | Inhibition of the growth of the R7 cells (R7 cells): very strongly inhibits the growth of the R7 cells | % Inhibition of normal human prostate cells [1]: 3.7% | IC50 (L1210 cells): 1.2 µM | % Inhibition of DU145 cells (DU145 cells [2]): 21.3% | IC50 (DU145 cells [3]): 5.9 µM
